{"source": "patent US10730857B2", "about": "“Benzocyanine compounds” (Pierce Biotechnology, Inc., priority 2011, dated 2020)", "key": {"[1]": {"assay": "Absorbance/emission spectral properties and fluorescence intensity of the dyes", "assay_type": "physicochemical", "settings": "second property table of Example 6; NHS ester forms", "procedure": "Emission/excitation profiles for inventive and commercial compounds was determined by reconstituting the compounds in DMF at 10 mg/ml and then diluting in PBS buffer pH 7.2 to 10 μg/ml."}, "[2]": {"test_system": "rabbit IgG immunoglobulin", "assay": "Plate functional assay of dye-GAR conjugates", "assay_type": "binding", "settings": "FIG. 14 summary Raw Fluorescence Intensity", "procedure": "Performance of the dye-GAM conjugates, dye-GAR conjugates, and dye-SA conjugates was evaluated in a functional assay. Wells of a 96 white opaque plate or black clear-bottom plate were coated with target proteins mouse IgG immunoglobulin, rabbit IgG immunoglobulin, or biotinylated bovine serum albumin (BBSA). One hundred μl mouse or rabbit IgG, or BBSA at a concentration of 10 μg/ml was applied to the corresponding wells in columns 1 and 2. The target proteins were serially diluted 1:1 from the wells in columns 2 to 11 using 100 μl PBS. One hundred μl of the samples from the wells in column 11 were discarded. One hundred μl PBS was added to the wells in column 12. The plates were incubated overnight at 4° C. and then blocked 2×200 μl with Thermo Scientific SuperBlock® Blocking Buffer. The coated plates were washed 2×200 μl with PBS-Tween and 1×200 μl with PBS. Based on the calculated concentrations, conjugates were diluted 1:250 in PBS, added to the corresponding plates (100 μl/well) and then incubated for one hour in the dark. The plates were washed with 2×200 μl with PBS-Tween and 1×200 μl with PBS and filled with PBS buffer (100 μl/well) prior to scanning the white opaque plates on Tecan Safire using 679 nmexcitation/702 nmemission or scanning the black clear-bottom plates on LiCor Odyssey at 700 channel, to detect fluorescence intensity."}, "lamin A in U20S cells": {"test_system": "lamin A in U20S cells", "assay": "Immunofluorescence detection of lamin A in U20S cells (FIG. 20A-C and repeat)", "assay_type": "cell-based", "settings": "for S/B 2.5 X: 2.5 X molar excess", "procedure": "In the indicated experiments, the inventive compounds and commercial dye were evaluated for immunofluorescence in a cell based assay using the following protocol. Frozen U20S cell plates which were stored at −80° C. were thawed for 45 minutes at 50° C. Storage buffer (PBS) was removed and the cells were permeabilized for 15 minutes with 0.1% Triton-X100 in 1×PBS buffer (100 μl/well). The cell plate was blocked for 60 minutes in 2% BSA/PBS-0.1% Triton-X100. Primary antibody, either rat anti-Grp94 (5 μg/ml), mouse anti-lamin A (10 μg/ml), or rabbit anti-lamin B1 (10 μg/ml), diluted in 2% BSA/PBS-0.1% Triton-X100 was added to the plate and incubated for 1 hour at room temperature. Control wells contained only 2% BSA/PBS-0.1% Triton-X100 blocker. After incubation, the antibody solution was removed from the plate and the plate was washed three times with 100 μl/well of PBS-0.5% Tween-20 and one time with 100 μl/well PBS. GARat, GAM, or GAR secondary antibodies labeled with various molar excess of the inventive or commercial compound were diluted to 4 μg/ml in PBS and incubated for 1 hour at room temperature. The plates were washed three times with 100 μl/well of PBST and once with 100 μl/well PBS, and Hoechst (diluted to 0.1 μg/ml in PBS) was added to each well (100 μl/well). The plates were scanned on ArrayScan Plate Reader or ToxInsight Instrument."}, "[3]": {"assay": "In vivo imaging with dye-labeled anti-CEA antibody", "design": "species or system nu/nu mice", "settings": "dye conjugated to mouse anti-CEA antibody; i.v.; predicted results", "procedure": "The inventive compounds are used for in vivo imaging as described in J. Gastrointest Surg (2008) 12:1938-1950. Briefly, human pancreatic cell lines are maintained in media supplemented with penicillin/streptomycin at 37° C. with 5% CO2. Mouse anti-CEA antibody and Control Mouse IgG (in PBS with 0.20% sodium azide) are conjugated to V08-15173. The dye is reconstituted at 10 mg/ml in DMF and then added to the antibody at a 10 molar excess. The reaction is carried out for one hour at room temperature. The samples are then dialyzed against 3×2 L of PBS. The cell lines are plated in 96-well plates at 5×10^4 cells per well. After 48 hours culture in appropriate media, the cells are incubated with 1 μg of V08-15173 labeled anti-CEA antibody or V08-15173-labeled control mouse IgG for four hours at 37° C. The cells are then washed three times with PBS and then imaged with an inverted Nikon De-485 microscope and Spot camera RD.\nSurgical procedures and intravital imaging are performed with the animals anesthesized by intramuscular injection of 0.02 ml of 50% ketamine, 38% xylazine and 12 acepromazine maleate. Human pancreatic and colorectal cancer cell lines are harvested by trypsinization and washed twice with serum free medium […]. Cells (1×10^6 in 100 μl of serum-free media) are injected subcutaneously within 30 minutes of harvesting over the right flank in female nu/nu mice between 4-6 weeks of age. Subcutaneous tumors are allowed to grow for 7-14 days until they reached diameter of 1-2 mm prior to the delivery of conjugated antibody. For ASPC-1 implants, the cells are harvested by trypsinization and washed 3× in serum-free media. […]. The cells are resuspended in serum-free media at 5×10^6/ml. A volume of 200 μl of the cell suspension is then injected directly into the peritoneal cavity within 30 minutes of harvesting.\nFor antibody delivery, one to two weeks after subcutaneous, orthotopic, or intraperitoneal tumor implantation, animals are given intravenous (i.v.) injection of either conjugated anti-CEA or conjugated control IgG antibody diluted in PBS to a final volume of 100 μl. All i.v. injections are done via the tail vein. For the dose-response experiment, the antibody dose is 75 μg. For the in vivo time course, the animals are anesthesized and imaged at 30 min, 1, 2, 6, 24 hours and 8 and 15 days after systemic antibody delivery.\nThe inventive compounds are used for in vivo imaging as described in J. Gastrointest Surg (2008) 12:1938-1950. Briefly, human pancreatic cell lines are maintained in media supplemented with penicillin/streptomycin at 37° C. with 5% CO2. Mouse anti-CEA antibody and Control Mouse IgG (in PBS with 0.20% sodium azide) are conjugated to 779 Compound 1. […]"}}, "note": "“Also recorded” adds a separate entry of the source.", "data": [{"smiles": "COCCOCCOCCOCC[N+]1=C(/C=C/C=C/C=C2/N(CCOCCOCCOCCOCCC(=O)ON3C(=O)CCC3=O)c3ccc4c(S(=O)(=O)[O-])cc(S(=O)(=O)O)cc4c3C2(C)CCOCCOCCOCCOC)C(C)(CCOCCOCCOCCOC)c2c1ccc1c(S(=O)(=O)O)cc(S(=O)(=O)O)cc21", "note": "(stereo not shown) [Compound V08-15173]", "values": [{"measurement": "Em", "setting": "[1]", "result": 706, "unit": "nm"}, {"measurement": "Ex", "setting": "[1]", "result": 684, "unit": "nm"}, {"measurement": "quenching at 1000 ng/well at 25× (in words)", "setting": "[2]", "result": "no apparent quenching"}, {"measurement": "S/B 2.5 X", "setting": "lamin A in U20S cells; GAM conjugate", "result": 2.9}, {"measurement": "S/B 5.0 X", "setting": "lamin A in U20S cells; GAM conjugate, 5.0 X molar excess", "result": 4.9}, {"measurement": "S/B 7.5 X", "setting": "lamin A in U20S cells; GAM conjugate, 7.5 X molar excess", "result": 6.0}, {"measurement": "S/B 10 X", "setting": "lamin A in U20S cells; GAM conjugate, 10 X molar excess", "result": 4.9}, {"measurement": "S/B 15 X", "setting": "lamin A in U20S cells; GAM conjugate, 15 X molar excess", "result": 4.6}, {"measurement": "non-specific binding / specificity (in words)", "setting": "lamin A in U20S cells; GAM conjugates, FIG. 20A-C", "result": "a minimal amount of non-specific binding; also recorded: little non-specific binding"}, {"measurement": "Mean Total Intensity, Negative control, 7.5 X", "setting": "lamin A in U20S cells; no primary antibody, 7.5 X molar excess", "result": 7100}, {"measurement": "S/B 2.5 X", "setting": "lamin A in U20S cells; repeat experiment", "result": 9.8}, {"measurement": "Ex vivo analysis of the vital organs", "setting": "[3]", "result": "presence of dye predominantly in the liver with some signal detected in the spleen intestines and lungs"}, {"measurement": "post-experiment surgical exposure: accumulation of dye", "setting": "[3]", "result": "accumulation of dye in the liver, bladder, and a region of inflammation in the subcutaneous tissue"}]}]}
